# Assay results reported in article PMC5241706, “Biochemical and Structural Characterization of Selective Allosteric Inhibitors of the Plasmodium falciparum Drug Target, Prolyl-tRNA-synthetase” (ACS Infectious Diseases, 2016).
# “And” between values parts separate entries of the source, which are not always exact repeats. Equal values may be shown once. Read-outs that look alike come from different tables or passages of the source.
# Legend:
# PfProRS [1] = target: T1, PfProRS (Plasmodium falciparum, UniProt Q8I5R7); type: binding
# T1 construct: B2, AA7–746 (minus 6 amino acids, or 99% of the ORF); made in house; host or cells: E. coli BL21(DE3)R3 Rosetta Oxford
# PfProRS [2] = target: T1, PfProRS; assay: aminoacylation assay ([3H]-L-proline incorporation into tRNA); type: biochemical
# HsProRS = target: T2, HsProRS (Homo sapiens, UniProt P07814); assay: luciferase ATP depletion assay, counter-screen; type: biochemical
# T2 construct: made in house
# T2 sequence (P07814 1007-1512 limits assumed): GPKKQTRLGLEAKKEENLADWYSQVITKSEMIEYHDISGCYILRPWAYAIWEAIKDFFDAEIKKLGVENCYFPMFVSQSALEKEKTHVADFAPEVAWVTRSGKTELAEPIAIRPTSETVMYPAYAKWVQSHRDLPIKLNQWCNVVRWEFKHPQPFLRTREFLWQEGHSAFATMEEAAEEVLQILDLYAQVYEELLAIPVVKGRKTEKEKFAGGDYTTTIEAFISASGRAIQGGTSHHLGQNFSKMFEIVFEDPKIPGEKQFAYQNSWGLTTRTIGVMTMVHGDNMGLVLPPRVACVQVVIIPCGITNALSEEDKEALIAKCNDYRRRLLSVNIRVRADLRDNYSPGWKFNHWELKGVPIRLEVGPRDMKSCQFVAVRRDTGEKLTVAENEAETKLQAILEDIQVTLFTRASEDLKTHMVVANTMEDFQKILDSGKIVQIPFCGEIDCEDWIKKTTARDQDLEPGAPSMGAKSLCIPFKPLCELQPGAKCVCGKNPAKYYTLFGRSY
# PfProRS [3] = target: T1, PfProRS; assay: luciferase ATP depletion assay, HTS format; type: biochemical
# [4] = tested on: isolated 3D7 trophozoites (pHi); assay: pH assay, BCECF-loaded isolated trophozoites; settings: TCMDC-124506 5 μM; KAE609 50 nM
# [5] = kinetic aqueous solubility, laser nephelometry; type: physicochemical; settings: MilliQ water with 1.0% DMSO, kinetic from dmso stock
# Description: (§1) 485nm (Plouffe et al., 2008).
# (§2) described (Vedadi et al., 2006).
# (§3) Orange Dye (Life Technologies S-6650).
# (§4) In vitro Cell Assay Data Analysis
# (§5) (Patterson et al., 2013). […] An
# (§6) Triplicate aliquots were transferred to a flat
# (§7) Intrinsic Clearance (CLi) experiments
# (§8) Test compound (0.5 µM) was
# (§9) phosphate buffer, pH 7.4).
# (§10) The rate of intrinsic clearance (CLi)
# (§11) 52.5mg protein per g liver.
# (§12) Ion homeostasis in the malaria parasite
# [6] = intrinsic clearance in liver microsomes; type: in vitro ADME
# Description: as §1, §2, §3, §4, §5, §6, §7, §8, §9, §10, §11, §12
# [7] = tested on: Plasmodium falciparum strain 3D7; assay: Plasmodium falciparum growth inhibition, SYBR green fluorescence; type: cell-based; settings: 3D7, growth inhibition, read-out: Pf (3D7) EC50
# PfProRS [8] = target: T1, PfProRS; assay: ATP consumption assay with proline or ATP varied (competition); type: biochemical
# experimental CHI-logD = type: physicochemical; settings: HPLC retention (chromatographic hydrophobicity index, CHI)
# From the text: (§13) […]. In addition to its activity and selectivity, it has good physicochemical and DMPK properties. […].
# HsHEPG2 = assay: mammalian cell line selectivity; type: cell-based; settings: Homo sapiens; data not shown
# From the text: as §13
# PfProRS [9] = target: T1, PfProRS; assay: biochemical; type: biochemical; settings: read-out: Pf ProRS IC50
# [10] = read-out: Percentage inhibition Pf ProRS
# T1 sequence (Q8I5R7 7-746): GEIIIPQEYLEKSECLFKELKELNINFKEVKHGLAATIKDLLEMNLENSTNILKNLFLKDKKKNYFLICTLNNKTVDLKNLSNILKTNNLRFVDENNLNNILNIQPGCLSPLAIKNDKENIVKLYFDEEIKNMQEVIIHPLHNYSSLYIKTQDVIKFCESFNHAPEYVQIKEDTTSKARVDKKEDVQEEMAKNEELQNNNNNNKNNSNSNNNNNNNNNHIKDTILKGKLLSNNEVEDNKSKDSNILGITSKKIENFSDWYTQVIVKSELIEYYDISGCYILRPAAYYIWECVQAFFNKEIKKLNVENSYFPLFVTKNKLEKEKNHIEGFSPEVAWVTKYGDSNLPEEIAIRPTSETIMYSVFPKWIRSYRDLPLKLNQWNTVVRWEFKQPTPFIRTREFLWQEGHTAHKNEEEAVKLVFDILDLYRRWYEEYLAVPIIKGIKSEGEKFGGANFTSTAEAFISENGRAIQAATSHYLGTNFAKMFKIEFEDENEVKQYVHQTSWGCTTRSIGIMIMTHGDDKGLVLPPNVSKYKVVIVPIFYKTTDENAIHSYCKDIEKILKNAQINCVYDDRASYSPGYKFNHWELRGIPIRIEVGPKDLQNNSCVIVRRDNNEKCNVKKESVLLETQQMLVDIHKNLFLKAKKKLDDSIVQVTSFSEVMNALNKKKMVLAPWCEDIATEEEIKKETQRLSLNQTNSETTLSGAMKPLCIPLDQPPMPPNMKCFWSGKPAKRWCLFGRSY
structure (smiles),measurement,setting,value
O=C(CC1NCCCC1O)Cn1cnc2cc(Br)c(Cl)cc2c1=O (stereo not shown) [halofuginone],change in thermal stability,PfProRS [1]; full-length recombinant protein B1,no increase in stability
same,shift in stability (thermal melt),PfProRS [1]; recombinant protein B2,6 °
same,IC50,PfProRS [2],11 nM
same,IC50,"HsProRS; 75 nM ProRS, 60 μM proline, 6 μM ATP, 400 μg/mL yeast tRNA, 2 h 37 °C",2000 nM and 2130 nM
same,fold difference between PfProRS and HsProRS IC50,HsProRS; HsProRS vs PfProRS,≤ 8 fold
same,inhibition at 0.02 µM,"HsProRS; at 0.02 μM, read-out: Percentage inhibition Hs ProRS",0.15%
same,inhibition at 0.05 µM,"HsProRS; at 0.05 μM, read-out: Percentage inhibition Hs ProRS",-0.14%
same,inhibition at 0.1 µM,"HsProRS; at 0.10 μM, read-out: Percentage inhibition Hs ProRS",0.21%
same,inhibition at 0.2 µM,"HsProRS; at 0.20 μM, read-out: Percentage inhibition Hs ProRS",1.95%
same,inhibition at 0.39 µM,"HsProRS; at 0.39 μM, read-out: Percentage inhibition Hs ProRS",9.43%
same,inhibition at 0.78 µM,"HsProRS; at 0.78 μM, read-out: Percentage inhibition Hs ProRS",24.7%
same,inhibition at 1.56 µM,"HsProRS; at 1.56 μM, read-out: Percentage inhibition Hs ProRS",46.5%
same,inhibition at 3.13 µM,"HsProRS; at 3.13 μM, read-out: Percentage inhibition Hs ProRS",64.1%
same,inhibition at 6.25 µM,"HsProRS; at 6.25 μM, read-out: Percentage inhibition Hs ProRS",74.3%
same,inhibition at 12.5 µM,"HsProRS; at 12.50 μM, read-out: Percentage inhibition Hs ProRS",85.7%
same,inhibition at 25 µM,"HsProRS; at 25.00 μM, read-out: Percentage inhibition Hs ProRS",89.2%
same,IC50,"PfProRS [3]; PfProRS IC50, 75 nM ProRS, 60 μM proline, 6 μM ATP, 400 μg/mL yeast tRNA, 2 h 37 °C",0.28 µM
same,IC50,"PfProRS [3]; PfProRS IC50, luciferase ATP depletion assay",0.275 µM
same,inhibition at 0.02 µM,PfProRS [3]; [10],-0.05%
same,inhibition at 0.05 µM,PfProRS [3]; [10],2.49%
same,inhibition at 0.1 µM,PfProRS [3]; [10],10.8%
same,inhibition at 0.2 µM,PfProRS [3]; [10],34.4%
same,inhibition at 0.39 µM,PfProRS [3]; [10],69%
same,inhibition at 0.78 µM,PfProRS [3]; [10],90%
same,inhibition at 1.56 µM,PfProRS [3]; [10],98.9%
same,inhibition at 3.13 µM,PfProRS [3]; [10],99.1%
same,inhibition at 6.25 µM,PfProRS [3]; [10],95%
same,inhibition at 12.5 µM,PfProRS [3]; [10],93.6%
same,inhibition at 25 µM,PfProRS [3]; [10],93.9%
Cn1nc(C(F)(F)F)c(-c2ccc(F)cc2)c1NC(=O)Nc1ccc(F)cc1 [TCMDC-124506],effect on acidification after concanamycin A (100 nM),[4],a reduction in the degree of acidification
same,effect on parasite cytosolic pH (pHi),[4],caused an increase in pHi
same,solubility kinetic,[5],> 250 µM
same,mouse microsomal clearance (Cli),[6],1.6 mL/min/g
same,EC50,[7],600 nM
same,mode of inhibition,PfProRS [8],competitive allosteric inhibitor
same,IC50,"PfProRS [8]; IC50 of TCMDC-124506 as a function of proline, Pro=30 M",88 µM
same,IC50,"PfProRS [8]; IC50 of TCMDC-124506 as a function of proline, Pro=60",110 µM
same,IC50,"PfProRS [8]; IC50 of TCMDC-124506 as a function of proline, Pro=120",128 µM
same,IC50,"PfProRS [8]; IC50 of TCMDC-124506 as a function of proline, Pro=240",151 µM
same,Ki,"PfProRS [8]; Ki (Cheng-Prusoff, competition with ATP), intercept of IC50 vs [ATP]",51 ± 1.6 µM
same,Ki,"PfProRS [8]; Ki (Cheng-Prusoff, competition with proline), intercept of IC50 vs [Proline]",80 ± 4.9 µM
same,IC50,"PfProRS [8]; TCMDC-124506 IC50 as a function of ATP, ATP=3 M",74.4 µM
same,IC50,"PfProRS [8]; TCMDC-124506 IC50 as a function of ATP, ATP=6",103 µM
same,IC50,"PfProRS [8]; TCMDC-124506 IC50 as a function of ATP, ATP=12",145 µM
same,IC50,HsProRS,> 700000 nM
same,inhibition at 2.5 µM,"HsProRS; at 2.5 μM, read-out: Percentage inhibition Hs ProRS",0.3%
same,inhibition at 4.9 µM,"HsProRS; at 4.9 μM, read-out: Percentage inhibition Hs ProRS",0.28%
same,inhibition at 9.8 µM,"HsProRS; at 9.8 μM, read-out: Percentage inhibition Hs ProRS",0.01%
same,inhibition at 19.5 µM,"HsProRS; at 19.5 μM, read-out: Percentage inhibition Hs ProRS",-0.08%
same,inhibition at 39 µM,"HsProRS; at 39 μM, read-out: Percentage inhibition Hs ProRS",0.26%
same,inhibition at 78 µM,"HsProRS; at 78 μM, read-out: Percentage inhibition Hs ProRS",0.84%
same,inhibition at 156 µM,"HsProRS; at 156 μM, read-out: Percentage inhibition Hs ProRS",0.82%
same,inhibition at 313 µM,"HsProRS; at 313 μM, read-out: Percentage inhibition Hs ProRS",0.26%
same,inhibition at 625 µM,"HsProRS; at 625 μM, read-out: Percentage inhibition Hs ProRS",0.12%
same,inhibition at 1250 µM,"HsProRS; at 1250 μM, read-out: Percentage inhibition Hs ProRS",0.04%
same,inhibitory activity for HsProRS,HsProRS; up to the limit of solubility (>1 mM),< 40%
same,chromatographic logD,experimental CHI-logD,2.9
same,IC50,"PfProRS [3]; 75 nM ProRS, 60 μM proline, 6 μM ATP, 400 μg/mL yeast tRNA, 2 h 37 °C, read-out: PfProRS IC50",74 µM and 73 µM
same,inhibition at 2.5 µM,PfProRS [3]; [10],-0.36%
same,inhibition at 4.9 µM,PfProRS [3]; [10],-2.4%
same,inhibition at 9.8 µM,PfProRS [3]; [10],3.73%
same,inhibition at 19.5 µM,PfProRS [3]; [10],10.8%
same,inhibition at 39 µM,PfProRS [3]; [10],30.9%
same,inhibition at 78 µM,PfProRS [3]; [10],55.8%
same,inhibition at 156 µM,PfProRS [3]; [10],79.5%
same,inhibition at 313 µM,PfProRS [3]; [10],80.4%
same,inhibition at 625 µM,PfProRS [3]; [10],96.2%
same,inhibition at 1250 µM,PfProRS [3]; [10],97%
same,EC50,HsHEPG2,> 50 µM
same,IC50,PfProRS [9],5 µM
